“And” between values parts separate entries of the source, which are not always exact repeats. Identical values can stand only once.
How the values were obtained:
Test in all cases: MIC and checkerboard (FIC) assay
[1] = tested on: clinical fusidic acid resistant MRSA strain 73621; assay type: cell-based, Staphylococcus aureus; details: for FIC / MIC combine: 73621
[2] = tested on: CA MRSA W114; details: W114
[3] = tested on: CA MRSA W106; details: W106
[4] = tested on: clinical fusidic acid resistant MRSA strain 82356; assay type: cell-based, Staphylococcus aureus; details: for FIC / MIC combine: 82356
[5] = tested on: CA MRSA W45; details: W45
[6] = tested on: HA MRSA W231
[7] = tested on: clinical fusidic acid resistant MRSA strain 96591; assay type: cell-based, Staphylococcus aureus; details: for FIC / MIC combine: 96591
[8] = tested on: HA MRSA W239; details: W239
[9] = tested on: CA-MRSA strain ST30; assay type: cell-based, Staphylococcus aureus; details: ST30
[10] = tested on: CA MRSA W46; details: W46
[11] = tested on: CA MRSA W47; details: W47
[12] = tested on: HA MRSA W235; details: W235
[13] = tested on: S. aureus SA-ANT4′ (ANT4), resistant to fusidic acid; details: for FIC / MIC combine: ANT4
[14] = tested on: CA MRSA W103; details: W103
[15] = tested on: CA MRSA W113; details: W113
[16] = tested on: CA MRSA W101; details: W101
[17] = tested on: CA MRSA W44; details: W44
[18] = tested on: HA MRSA W232; details: W232
[19] = tested on: HA MRSA W238

Which results are given for `C=C(C)[C@H](CC=C(C)C)Cc1c(O)cc(OC)c(C(=O)/C=C/c2ccc(O)cc2O)c1O` [Kuraridin]?
MIC alone ([1]; 73621 (fusidic acid resistant)): 8 µg/mL; FIC ([1]; ECG+Kur+Fus): 0.5; MIC combine ([1]; ECG+Kur+Fus): 4 µg/mL; FIC ([1]; ECG+Kur, no Fus): 0.5; MIC combine ([1]; ECG+Kur, no Fus): 4 µg/mL; MIC alone [2]: 8 µg/mL; FIC ([2]; ECG with Kur): 0.5; MIC combine ([2]; ECG with Kur): 4 µg/mL; MIC alone [3]: 8 µg/mL; FIC ([3]; ECG with Kur): 0.25; MIC combine ([3]; ECG with Kur): 2 µg/mL; MIC alone ([4]; 82356 (fusidic acid resistant)): 8 µg/mL; FIC ([4]; ECG+Kur+Fus): 0.25; MIC combine ([4]; ECG+Kur+Fus): 4 µg/mL; FIC ([4]; ECG+Kur, no Fus): 0.5; MIC combine ([4]; ECG+Kur, no Fus): 4 µg/mL; MIC alone [5]: 8 µg/mL; FIC ([5]; ECG with Kur): 0.5; MIC combine ([5]; ECG with Kur): 4 µg/mL; FIC ([5]; ECG+Kur+Van): 0.25; MIC combine ([5]; ECG+Kur+Van): 2 µg/mL; MIC alone ([5]; Table 5): 8 µg/mL; MIC alone ([6]; W231): 4 µg/mL; MIC alone ([6]; W231 (gentamicin resistant)): 8 µg/mL; FIC ([6]; W231, ECG with Kur): 0.25; MIC combine ([6]; W231, ECG with Kur): 1 µg/mL; FIC ([6]; W231, ECG+Kur+Gen): 0.25; MIC combine ([6]; W231, ECG+Kur+Gen): 2 µg/mL; FIC ([6]; W231, ECG+Kur+Van): 0.125; MIC combine ([6]; W231, ECG+Kur+Van): 1 µg/mL; FIC ([6]; W231, ECG+Kur, no Gen): 0.25; MIC combine ([6]; W231, ECG+Kur, no Gen): 2 µg/mL; MIC alone ([6]; W231, Table 5): 8 µg/mL; MIC alone ([7]; 96591 (fusidic acid resistant), listed as Kur): 4 µg/mL and 8 µg/mL; FIC ([7]; ECG+Kur+Fus): 0.5; MIC combine ([7]; ECG+Kur+Fus): 2 µg/mL; FIC ([7]; ECG+Kur, no Fus): 0.5; MIC combine ([7]; ECG+Kur, no Fus): 4 µg/mL; MIC alone [8]: 8 µg/mL; FIC ([8]; ECG with Kur): 0.5; MIC combine ([8]; ECG with Kur): 4 µg/mL; FIC ([8]; ECG+Kur+Van): 0.25; MIC combine ([8]; ECG+Kur+Van): 2 µg/mL; MIC alone ([8]; Table 5): 8 µg/mL; MIC alone [9]: 8 µg/mL; FIC ([9]; ECG with Kur): 0.5; MIC combine ([9]; ECG with Kur): 4 µg/mL; FIC ([9]; ECG+Kur+Van): 0.125; MIC combine ([9]; ECG+Kur+Van): 1 µg/mL; MIC alone ([9]; Table 5): 8 µg/mL; MIC alone [10]: 8 µg/mL; FIC ([10]; ECG with Kur): 0.5; MIC combine ([10]; ECG with Kur): 4 µg/mL; FIC ([10]; ECG+Kur+Van): 0.5; MIC combine ([10]; ECG+Kur+Van): 4 µg/mL; MIC alone ([10]; Table 5): 8 µg/mL; MIC alone [11]: 8 µg/mL; FIC ([11]; ECG with Kur): 0.5; MIC combine ([11]; ECG with Kur): 4 µg/mL; FIC ([11]; ECG+Kur+Van): 0.25; MIC combine ([11]; ECG+Kur+Van): 2 µg/mL; MIC alone ([11]; Table 5): 8 µg/mL; MIC alone [12]: 8 µg/mL; FIC ([12]; ECG with Kur): 0.5; MIC combine ([12]; ECG with Kur): 4 µg/mL; MIC alone ([13]; ANT4 (fusidic acid resistant)): 8 µg/mL; FIC ([13]; ECG+Kur+Fus): 0.25; MIC combine ([13]; ECG+Kur+Fus): 2 µg/mL; FIC ([13]; ECG+Kur, no Fus): 0.25; MIC combine ([13]; ECG+Kur, no Fus): 2 µg/mL; MIC alone [14]: 8 µg/mL; FIC ([14]; ECG with Kur): 0.5; MIC combine ([14]; ECG with Kur): 4 µg/mL; MIC alone [15]: 8 µg/mL; FIC ([15]; ECG with Kur): 0.5; MIC combine ([15]; ECG with Kur): 4 µg/mL; MIC alone [16]: 8 µg/mL; FIC ([16]; ECG with Kur): 0.5; MIC combine ([16]; ECG with Kur): 4 µg/mL; MIC alone [17]: 8 µg/mL; FIC ([17]; ECG with Kur): 0.25; MIC combine ([17]; ECG with Kur): 2 µg/mL; FIC ([17]; ECG+Kur+Van): 0.25; MIC combine ([17]; ECG+Kur+Van): 2 µg/mL; MIC alone ([17]; Table 5): 8 µg/mL; MIC alone [18]: 8 µg/mL; FIC ([18]; ECG with Kur): 0.25; MIC combine ([18]; ECG with Kur): 2 µg/mL; FIC ([18]; ECG+Kur+Van): 0.25; MIC combine ([18]; ECG+Kur+Van): 2 µg/mL; MIC alone ([18]; Table 5): 8 µg/mL; MIC alone ([19]; W238): 8 µg/mL; MIC alone ([19]; W238 (gentamicin resistant)): 8 µg/mL; FIC ([19]; W238, ECG with Kur): 0.5; MIC combine ([19]; W238, ECG with Kur): 4 µg/mL; FIC ([19]; W238, ECG+Kur+Gen): 0.25; MIC combine ([19]; W238, ECG+Kur+Gen): 2 µg/mL; FIC ([19]; W238, ECG+Kur+Van): 0.25; MIC combine ([19]; W238, ECG+Kur+Van): 2 µg/mL; FIC ([19]; W238, ECG+Kur, no Gen): 0.5; MIC combine ([19]; W238, ECG+Kur, no Gen): 4 µg/mL; MIC alone ([19]; W238, Table 5): 8 µg/mL

From patent US11690810B2, “Combination treatment of bacterial infection” (The Chinese University of Hong Kong, priority 2018, dated 2023)
